Data taken from the NIST ThermoML archive (doi:10.1021/acs.jced.6b00192).

Conditions: Liquid, Vibrating tube method

CCCCOCCO [2-butoxyethan-1-ol]
mass density [kg/m3]
Conditions	283.15 K	293.15 K	303.15 K	313.15 K	323.15 K	333.15 K	343.15 K	353.15 K	363.15 K
100 kPa	907.9	900.5	891.8	883.5	874	865.6	856.5	847.5	838.2
1000 kPa	908.3	900.6	892.1	884	875	866.1	857.4	848.4	839.4
3000 kPa	909.9	902.2	893.9	885.6	876.5	868	859.3	850.5	841.4
5000 kPa	911	903.2	895.4	887.1	878.1	869.5	861.1	852.2	843.4
10000 kPa	914.2	906.8	898.9	890.7	881.9	873.5	865.1	856.7	847.9
15000 kPa	917.1	910	902	894.1	885.5	877.3	869.1	860.9	852.6
20000 kPa	920	912.9	905.5	897.3	889.1	880.9	873.2	864.8	856.4
25000 kPa	922.8	915.9	908.7	900.7	892.1	884.4	876.5	868.7	860.4
30000 kPa	925.6	918.8	911.8	903.6	895.4	887.6	880.1	872.3	864.4
35000 kPa	928.4	921.4	914.5	906.7	898.5	890.8	883.5	875.9	868.1
40000 kPa	930.9	924	916.7	909.4	901.6	894	886.7	879.2	871.8
50000 kPa	935.7	929.5	921.8	915.1	907.3	900.1	893	885.6	878.4
60000 kPa	940.5	933.9	927.1	920.1	912.9	905.7	898.6	891.8	884.8

CCCCOCCOCCO [3,6-dioxa-1-decanol]
mass density [kg/m3]
Conditions	283.15 K	293.15 K	303.15 K	313.15 K	323.15 K	333.15 K	343.15 K	353.15 K	363.15 K
100 kPa	960.4	952.4	943.8	935.5	927	917.8	909.1	901.1	892.6
1000 kPa	961.3	952.9	944.2	935.9	927.3	918.7	910.5	902.1	893.2
3000 kPa	962.6	954.3	946	937.2	928.8	920.7	912.35	903.9	894.9
5000 kPa	963.4	955.2	947	938.8	930.3	922.2	913.6	905.3	896.7
10000 kPa	966.5	958.4	950.3	942	933.8	925.7	917.6	909.3	900.4
15000 kPa	969.4	961.2	953	945.2	937.2	929.2	921.3	913.1	904.8
20000 kPa	971.9	964	956	948.4	940.4	932.5	924.7	916.8	908.5
25000 kPa	974.5	966.9	959.1	951.2	943.5	935.5	928.1	920.3	912.1
30000 kPa	977.1	969.6	962	953.8	946.4	939	931.3	923.7	915.7
35000 kPa	979.1	972	964.7	956.9	949.5	942	934.4	927.1	919.2
40000 kPa	981.4	974.4	967.1	959.7	952.5	945.2	937.3	930.3	922.7
50000 kPa	986.9	979.7	972.2	965	958.2	950.6	943.2	936.3	929.1
60000 kPa	990.4	983.9	977.1	969.7	963.4	956	948.8	942.2	935.2

CCCCOCCOCCOCCCC [5,8,11-trioxapentadecane]
mass density [kg/m3]
Conditions	283.15 K	293.15 K	303.15 K	313.15 K	323.15 K	333.15 K	343.15 K	353.15 K	363.15 K
100 kPa	891.3	882.9	874.5	866.1	857.2	849.1	840.4	832.4	823.4
1000 kPa	891.8	883.1	875.1	866.41	858.2	850	841.7	833	824.8
3000 kPa	893.2	884.8	876.6	868.1	859.8	851.6	843.5	835.1	827.1
5000 kPa	894.3	885.9	878.2	869.8	861.5	853.3	845.5	836.7	828.7
10000 kPa	897.7	889.6	881.8	873.5	865.4	857.5	849.8	841.4	833.5
15000 kPa	900.9	892.9	885.2	877.2	869.2	861.4	853.7	846	838.4
20000 kPa	904.3	896.1	888.42	880.7	873.1	865.4	857.9	850.3	842.8
25000 kPa	906.9	899.3	891.8	884.1	876.5	869	861.6	854	846.8
30000 kPa	909.9	902.3	894.9	887.1	879.8	872.6	865.3	857.9	850.9
35000 kPa	912.8	905.1	897.9	890.5	883.1	875.9	868.9	861.6	854.9
40000 kPa	915.3	907.9	900.8	893.3	886.3	879.5	872.3	865.1	858.5
50000 kPa	920.5	913.6	906.4	899.4	892.4	885.5	878.9	871.5	865.6
60000 kPa	925.4	918.2	911.8	904.9	898.8	891.6	884.7	878.2	872
